These results are taken from ChEMBL document CHEMBL1132561, “Identification and characterization of m1 selective muscarinic receptor antagonists1” (J Med Chem, 1999).

As usually defined, the IC50 is the concentration needed to halve the response being measured.

In test [1] the target is T1, Muscarinic acetylcholine receptor M4 (Homo sapiens, UniProt P08173).
T1 sequence (P08173 whole entry): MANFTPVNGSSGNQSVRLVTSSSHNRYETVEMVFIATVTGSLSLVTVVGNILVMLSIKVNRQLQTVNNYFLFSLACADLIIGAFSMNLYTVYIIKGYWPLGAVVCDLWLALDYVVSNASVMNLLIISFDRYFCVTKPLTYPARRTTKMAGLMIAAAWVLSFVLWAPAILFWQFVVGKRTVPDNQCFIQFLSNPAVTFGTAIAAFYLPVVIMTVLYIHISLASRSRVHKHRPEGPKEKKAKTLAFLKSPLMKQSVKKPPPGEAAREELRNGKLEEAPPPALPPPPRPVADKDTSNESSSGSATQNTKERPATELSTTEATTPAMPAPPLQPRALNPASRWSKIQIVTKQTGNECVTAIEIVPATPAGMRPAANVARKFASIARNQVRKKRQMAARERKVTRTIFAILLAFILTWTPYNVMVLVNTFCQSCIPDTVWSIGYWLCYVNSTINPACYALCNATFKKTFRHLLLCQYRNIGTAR
In words: biochemical. The class given is cell-based, CHO.
Description: Displacement of [3H]NMS binding to human Muscarinic acetylcholine receptor M4 using membranes from transfected CHO cells

For test [2], the target named is T2, Muscarinic acetylcholine receptor M2 (Homo sapiens, UniProt P08172).
T2 sequence (P08172 whole entry): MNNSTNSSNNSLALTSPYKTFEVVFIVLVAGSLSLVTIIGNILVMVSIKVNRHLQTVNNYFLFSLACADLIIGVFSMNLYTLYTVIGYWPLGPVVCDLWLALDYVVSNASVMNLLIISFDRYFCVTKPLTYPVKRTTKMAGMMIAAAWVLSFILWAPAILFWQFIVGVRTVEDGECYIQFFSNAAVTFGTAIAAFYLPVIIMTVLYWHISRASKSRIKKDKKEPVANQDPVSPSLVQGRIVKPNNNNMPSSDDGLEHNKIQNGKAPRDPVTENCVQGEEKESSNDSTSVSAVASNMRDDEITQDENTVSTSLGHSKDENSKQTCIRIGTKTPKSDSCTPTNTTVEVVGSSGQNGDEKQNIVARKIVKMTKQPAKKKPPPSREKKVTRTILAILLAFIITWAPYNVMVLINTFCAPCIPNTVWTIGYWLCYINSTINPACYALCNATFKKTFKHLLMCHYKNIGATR
The experiment in a line: biochemical. The class given is cell-based, CHO.
Description: Displacement of [3H]NMS binding to human Muscarinic acetylcholine receptor M2 using membranes from transfected CHO cells

`CCCCCCCCOC(=O)C1CN(CC)CC=C1c1ccccc1` (configuration not stated) yielded an IC50 in test [1] of 1.25 µM.
Take `CCCCCCCCOC(=O)C1=C(c2ccccc2)CCN(CC)C1`: the 50% inhibitory concentration (IC50) came to 0.0525 µM in test [2] and 0.259 µM in test [1].
The like results for `CCN1CCC(c2ccccc2)=C(C(=O)OCC(c2ccccc2)c2ccccc2)C1` were, in that order, 2.57 µM and 7.71 µM.
The like results for `CCN1CC=C(c2ccccc2)C(C(=O)OCC(c2ccccc2)c2ccccc2)C1` (configuration not stated) were, in that order, 0.475 µM and 4.16 µM.
As for `CCCCCCOC(=O)[C@H]1CN(CC)CC[C@H]1c1ccccc1`, the values for the IC50 in test [2] and in test [1] were 0.405 µM and 0.573 µM, respectively.
The corresponding values for `CCN1CC=C(c2ccccc2)C(C(=O)OCCCc2ccccc2)C1` (configuration not stated) are 2.21 µM and 1.13 µM.
The like results for `CCN1CC=C(c2ccccc2)C(C(=O)OCc2ccccc2)C1` (configuration not stated) were, in that order, 0.241 µM and 0.146 µM.
The corresponding values for `CCN1CCC(c2ccccc2)=C(C(=O)OCc2ccccc2)C1` are 0.451 µM and 0.473 µM.
In the case of `CCN1CCC(c2ccccc2)=C(C(=O)OCCCc2ccccc2)C1`, the values for the IC50 in test [2] and in test [1] were 1.04 µM and 1.16 µM, respectively.
